Measurements: ChEMBL document CHEMBL1201862, “PubChem BioAssay data set” (2004)
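96-well plates; 48 h exposure; 5 concentrations. Endpoints by linear interpolation between flanking doses. Not reached: highest tested concentration assigned. Abbreviation: GI50, concentration required for 50% inhibition of growth.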 The source made the active and inactive calls. Cut-off read from the data, not from the text of the source: active = GI50 up to about 1.1 µM and inactive = higher.

What was measured:
Test in all cases: NCI tumour cell line growth inhibition, 48 h
[1] = system: RXF 393
[2] = system: Hs-578T
[3] = system: OVCAR-3
[4] = system: COLO 205
[5] = system: NCI-H522
[6] = system: MDA-N
[7] = system: SK-OV-3
[8] = system: DU-145
[9] = system: HOP-62
[10] = system: NCI/ADR-RES
[11] = system: A549
[12] = system: SN12C
[13] = system: MDA-MB-435
[14] = system: A498
[15] = system: HOP-92
[16] = system: UACC-62
[17] = system: NCI-H226
[18] = system: HCC 2998
[19] = system: HL-60

Measured: GI50

CC(=O)c1ccc(O)c(CN(C2CCCCC2)C2CCCCC2)c1O
inactive: [1] > 100 µM | [2] > 100 µM | [3] > 100 µM | [4] > 100 µM | [5] > 100 µM | [6] > 100 µM | [7] > 100 µM | [8] > 100 µM | [9] > 100 µM | [10] > 100 µM | [11] > 100 µM | [12] > 100 µM | [13] > 100 µM | [14] > 100 µM | [15] > 100 µM | [16] > 100 µM | [17] > 100 µM

COC(=O)c1ccc(-n2c(C)nc(=O)c(-c3ccccc3)c2C)cc1
inactive: [1] > 100 µM | [18] > 100 µM | [2] > 100 µM | [19] > 100 µM | [3] > 100 µM | [4] > 100 µM | [5] > 100 µM | [6] > 10 µM | [7] > 100 µM | [8] > 100 µM | [9] > 100 µM | [10] > 100 µM | [11] > 100 µM | [12] > 100 µM | [13] > 100 µM | [14] > 100 µM | [15] > 100 µM | [17] > 100 µM

C[Si](C)(C)CCOCN(C(=O)C1=CCC2(CC1)OCCO2)c1ccccc1I
inactive: [1] 17.5 µM | [18] 21.1 µM | [2] 15.8 µM | [3] 21.6 µM | [4] 37.4 µM | [5] 21.1 µM | [6] 20.6 µM | [7] 16.8 µM | [8] 25.4 µM | [9] 20.7 µM | [10] 26.7 µM | [11] 23.6 µM | [12] 28.1 µM | [13] 13.9 µM | [14] 12.4 µM | [16] 16.9 µM | [17] 22.9 µM
active: [15] 0.121 µM

O=C1CSC2(CCN(CCCN3c4ccccc4Sc4ccc(Cl)cc43)CC2)N1
inactive: [1] 3.07 µM | [18] 3.99 µM | [2] 10.4 µM | [3] 10.4 µM | [4] 10 µM | [5] 10.1 µM | [6] 11.5 µM | [7] 9.77 µM | [8] 11.9 µM | [9] 12.9 µM | [10] 4.9 µM | [11] 10.1 µM | [12] 10.8 µM | [13] 11.4 µM | [14] 15.5 µM | [15] 5.55 µM | [16] 11.5 µM | [17] 17.6 µM

CCc1ncnc2cc(OCC3CO3)c(OC)cc12 (stereo not given)
active: [19] 0.889 µM
inactive: [1] 2.28 µM | [2] 5.77 µM | [3] 11.1 µM | [4] 8.17 µM | [5] 2.31 µM | [6] 5.94 µM | [7] 22.9 µM | [8] 4.15 µM | [9] 3.18 µM | [10] 7.23 µM | [11] 4.49 µM | [12] 1.3 µM | [13] 5.12 µM | [14] 21.3 µM | [15] 4.26 µM | [16] 2.86 µM | [17] 6.49 µM

N#CCCN(CCC#N)c1ccc(/C=C2\N=C(c3ccccc3)N(c3ccccn3)C2=O)cc1
inactive: [1] > 100 µM | [2] > 100 µM | [19] > 100 µM | [3] > 100 µM | [4] > 100 µM | [6] > 100 µM | [7] > 100 µM | [8] > 100 µM | [9] > 100 µM | [10] > 100 µM | [11] > 100 µM | [12] > 100 µM | [13] > 100 µM | [14] > 100 µM | [15] > 100 µM | [16] > 100 µM | [17] > 100 µM

CCOC(=O)c1c(N2CCOCC2)[nH]c(=O)c(C(c2ccc(OC)cc2)c2c(O)c(C(=O)OCC)c(N3CCOCC3)[nH]c2=O)c1O
inactive: [1] > 100 µM | [18] > 100 µM | [2] > 100 µM | [3] > 100 µM | [4] > 100 µM | [5] > 100 µM | [6] > 100 µM | [7] > 100 µM | [8] > 100 µM | [9] > 100 µM | [10] > 100 µM | [11] > 100 µM | [12] > 100 µM | [13] > 100 µM | [14] > 100 µM | [15] > 100 µM | [16] > 100 µM | [17] > 100 µM

Nc1nccc(NCC2(CO)CCC2)n1
inactive: [1] > 100 µM | [18] > 100 µM | [2] > 100 µM | [19] > 100 µM | [3] > 100 µM | [4] > 100 µM | [5] > 100 µM | [6] > 100 µM | [8] > 100 µM | [9] > 100 µM | [10] > 100 µM | [11] > 100 µM | [12] > 100 µM | [13] > 100 µM | [14] > 100 µM | [15] > 100 µM | [16] > 100 µM | [17] > 100 µM

Oc1[nH]c(Nc2ccc(Cl)c(C(F)(F)F)c2)nc2ncnc1-2
inactive: [1] 26.1 µM | [18] 24.7 µM | [2] 38.5 µM | [3] 36.6 µM | [4] 27.2 µM | [5] 14.2 µM | [6] 25.6 µM | [7] > 100 µM | [8] 36.1 µM | [9] > 100 µM | [10] > 100 µM | [11] > 100 µM | [12] 32.5 µM | [13] 50.2 µM | [14] 24 µM | [15] 58.5 µM | [16] 32.6 µM | [17] > 100 µM

O=C(/C=C/c1ccc(/C=C/C(=O)c2ccc(O)cc2)cc1)c1ccc(O)cc1
inactive: [1] > 100 µM | [18] > 100 µM | [2] > 100 µM | [19] > 100 µM | [3] > 100 µM | [4] > 100 µM | [5] > 10 µM | [6] > 100 µM | [8] > 100 µM | [9] > 100 µM | [10] > 100 µM | [11] > 100 µM | [12] > 100 µM | [13] > 100 µM | [14] > 100 µM | [15] > 100 µM | [16] > 100 µM | [17] > 100 µM

CNc1c2c(c3nc4ccccc4c4c3c1N=C4)NCCC2=O [PLAKINIDINE A]
inactive: [1] 5.41 µM | [18] 5.08 µM | [2] > 10 µM | [3] 8.57 µM | [4] 2.82 µM | [5] 3.27 µM | [6] 7.35 µM | [7] 8.04 µM | [8] > 10 µM | [9] 8.59 µM | [10] 2.83 µM | [11] 3.52 µM | [12] 4.22 µM | [13] 5.79 µM | [14] 2.67 µM | [15] 4.51 µM | [17] 7.43 µM
